Reference: PubChem BioAssay AID1963830 (Molecular Pharmacology Branch, DTP, NCI, 2024)
pIC50: −log10 of the molar value.

Tested on: 922993-354-T-J3-PDC complex spheroid viability
Assay: Anticancer human tumor 922993-354-T-J3-PDC patient-derived endometrial carcinoma cell line growth inhibition [POLQ]
Conditions: for pIC50: curve of first compound; for viability, T/C: stronger effect = lower value
Procedure: Multicellular complex tumor spheroid response to Polymerase (POL) inhibitors (novobiocin, ART-558, RP6685) in combination with a variety of drugs and investigational agents in selected tumor cell lines
The POL inhibitors (novobiocin, ART-558, and RP6685) were evaluated both individually and in combination with standard of care and investigational anticancer small molecules within a complex spheroid model of solid tumors. . Complex spheroids include a stromal component modeled by human endothelial cells (HUVEC) and fibroblasts modeled by human mesenchymal stem cells (MSCs). The concentration ranges selected for each drug and investigational agent were based upon clinically achievable concentrations if the clinical Cmax of the agent was known.
Compounds. The drugs and investigational agents: novobiocin (NSC847541), ART-558 (NSC835418), RP-6685 (NSC848927), peposertib (NSC802822), ceralasertib (NSC780249), elimusertib (NSC800525), camonsertib (NSC841442), AZD-1390 (NSC803789), olaparib (NSC753686), talazoparib (NSC767125), rucaparib (NSC756644), sotorasib (NSC818433), MRTX-1133 (NSC836407), SN-38 (NSC673596), topotecan (NSC609699), epotoside (NSC141540), doxorubicin (NSC123127), gemcitabine (NSC613327), 5-fluorouracil (NSC19893), paclitaxel (NSC125973), vemurafenib (NSC761431), MSA-2 (NSC828583), SN-011 (NSC837082), adavosertib (NSC754352), prexasertib (NSC758257), carboplatin (NSC241240) and oxaliplatin (NSC266046), were obtained from the National Cancer Institute (NCI) Developmental Therapeutics Program Chemical Repository (21). The FDA-approved anticancer drug set is available from the Developmental Therapeutics Program at https://dtp.cancer.gov/organization/dscb/obtaining/. […] The stock solutions were prepared in dimethyl sulfoxide (DMSO, Sigma-Aldrich, St. Louis, MO, cat. D2650), except for the platinum compounds which were prepared in saline (Quality Biological, Gaithersburg, MD, cat. 114-055-101), at 800-fold the tested concentration and stored at -70 degrees C prior to their use. All drugs and investigational agents were tested over a range starting from a high concentration at or near the clinical Cmax and decreasing in half-log increments. If the clinical Cmax for an agent had not been determined, the highest concentration tested was 10 microM, except for SN-38, which was tested at a high concentration of 1 microM.
Cell Culture. All cells were maintained in an incubator at 37 degrees C and 5% CO2 with 95% humidity. The PDC lines were cultured according to standard operating procedures established by the NCI PDMR (https://pdmr.cancer.gov). Table 3 of the manuscript, lists the cell lines along with the number of the three cell types plated to form the mct-spheroids and media for tumor cell growth. After thawing, all PDC lines, except 997537-175-T-J1-PDC and 415267-285-R-J2-PDC, were cultured in Matrigel-coated flasks prepared with a working solution of 1X Ham's F-12 nutrient mix, without supplementation (Thermo Fisher Scientific, cat. 11765054), 100 U/mL penicillin-streptomycin (Thermo Fisher Scientific, cat. 15140122), and 2.5% Matrigel (Corning Inc., Corning, NY, cat. 354248) for the first three passages. The two PDC lines 997537-175-T-J1-PDC and 415267-285-R-J2-PDC were cultured on uncoated flasks. The 857933-349-R-J2-PDC line was cultured in 6C/Colon 1B media containing advanced DMEM/F-12 (Thermo Fisher Scientific, cat. 12634028), 10 mM HEPES (Thermo Fisher Scientific, cat. 15630080), 1X GlutaMAX supplement (Thermo Fisher Scientific, cat. 35050061), 0.1 mg/mL primocin (InvivoGen, San Diego, CA, cat. ant-pm-2), 10% defined fetal bovine serum, heat inactivated (HyClone Laboratories Inc., Logan, UT, cat. SH30070.03HI), 50% L-WRN conditioned media (ATCC, cat. CRL-3276), 1.25 mM N-Acetyl-L-cysteine (Sigma-Aldrich, cat. A9165), 10 mM nicotinamide (Sigma-Aldrich, cat. N0636), 1X B-27 supplement (Thermo Fisher Scientific, cat. 17504044), 1X N-2 supplement (Thermo Fisher Scientific, cat. […]

[1] = second compound 0.0316 µM, first compound 0.0316 µM
[2] = second compound 0.0316 µM, first compound 0.1 µM
[3] = second compound 0.0316 µM, first compound 0.316 µM
[4] = second compound 0.0316 µM, first compound 1 µM
[5] = second compound 0.0316 µM, first compound 3.16 µM
[6] = second compound 0.0316 µM, first compound 10 µM
[7] = second compound 0.1 µM, first compound 0.0316 µM
[8] = second compound 0.1 µM, first compound 0.1 µM
[9] = second compound 0.1 µM, first compound 0.316 µM
[10] = second compound 0.1 µM, first compound 1 µM
[11] = second compound 0.1 µM, first compound 3.16 µM
[12] = second compound 0.1 µM, first compound 10 µM
[13] = second compound 0.316 µM, first compound 0.0316 µM
[14] = second compound 0.316 µM, first compound 0.1 µM
[15] = second compound 0.316 µM, first compound 0.316 µM
[16] = second compound 0.316 µM, first compound 1 µM
[17] = second compound 0.316 µM, first compound 3.16 µM
[18] = second compound 0.316 µM, first compound 10 µM
[19] = second compound 1 µM, first compound 0.0316 µM
[20] = second compound 1 µM, first compound 0.1 µM
[21] = second compound 1 µM, first compound 0.316 µM
[22] = second compound 1 µM, first compound 1 µM
[23] = second compound 1 µM, first compound 3.16 µM
[24] = second compound 1 µM, first compound 10 µM
[25] = second compound 3.16 µM, first compound 0.0316 µM
[26] = second compound 3.16 µM, first compound 0.1 µM
[27] = second compound 3.16 µM, first compound 0.316 µM
[28] = second compound 3.16 µM, first compound 1 µM
[29] = second compound 3.16 µM, first compound 3.16 µM
[30] = second compound 3.16 µM, first compound 10 µM
[31] = second compound 10 µM, first compound 0.0316 µM
[32] = second compound 10 µM, first compound 0.1 µM
[33] = second compound 10 µM, first compound 0.316 µM
[34] = second compound 10 µM, first compound 1 µM
[35] = second compound 10 µM, first compound 3.16 µM
[36] = second compound 10 µM, first compound 10 µM
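Also: spheroids exposed to the agents for one week.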
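For viability, T/C in this document: 100% = DMSO vehicle control wells.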

In the case of CC1COCCN1c1cc(-c2ccnn2C)c2ccnc(-c3ccn[nH]3)c2n1 (centres undefined) + Cc1cccc(N(C)C(=O)C2C(O)CCN2c2nc(C)cc(C(F)(F)F)c2C#N)c1, the pIC50 (second compound 0.0316 µM) was 6.78, the pIC50 (second compound 0.1 µM) was 6.86 and the pIC50 (second compound 0.316 µM) was 6.71. For the same molecule, the pIC50 (second compound 1 µM) was 6.79, the pIC50 (second compound 3.16 µM) was 6.76 and the pIC50 (second compound 10 µM) was 6.78. It also gave a viability, T/C [1] of 99.9%, a viability, T/C [2] of 63.3% and a viability, T/C [3] of 35.3%. It also gave a viability, T/C [4] of 10.8%, a viability, T/C [5] of 10.2% and a viability, T/C [6] of 9.85%. The viability, T/C [7] was 96.1%, the viability, T/C [8] was 58.2% and the viability, T/C [9] was 28.4%. For the same molecule, the viability, T/C [10] was 13.8%, the viability, T/C [11] was 8.45% and the viability, T/C [12] was 10.4%. For the same molecule, the viability, T/C [13] was 97.5%, the viability, T/C [14] was 75.9% and the viability, T/C [15] was 32.9%. The viability, T/C [16] was 8.6%, the viability, T/C [17] was 9.15% and the viability, T/C [18] was 10.9%. For the same molecule, the viability, T/C [19] was 105%, the viability, T/C [20] was 64.6% and the viability, T/C [21] was 31.4%. For the same molecule, the viability, T/C [22] was 11.2%, the viability, T/C [23] was 8.14% and the viability, T/C [24] was 9.87%. The viability, T/C [25] was 87.2%, the viability, T/C [26] was 71.5% and the viability, T/C [27] was 26.9%. The viability, T/C [28] was 10.6%, the viability, T/C [29] was 8.05% and the viability, T/C [30] was 9.86%. For the same molecule, the viability, T/C [31] was 92.5%, the viability, T/C [32] was 66.5% and the viability, T/C [33] was 28.7%. For the same molecule, the viability, T/C [34] was 14.1%, the viability, T/C [35] was 9.35% and the viability, T/C [36] was 8.57%.
In the case of CC1COCCN1c1cc(C2(S(C)(=N)=O)CC2)nc(-c2ccnc3[nH]ccc23)n1 (centres undefined) + Cc1cccc(N(C)C(=O)C2C(O)CCN2c2nc(C)cc(C(F)(F)F)c2C#N)c1, the pIC50 (second compound 0.0316 µM) was under 5.00, the pIC50 (second compound 0.1 µM) was under 5.00 and the pIC50 (second compound 0.316 µM) was under 5.00. For the same molecule, the pIC50 (second compound 1 µM) was under 5.00, the pIC50 (second compound 3.16 µM) was 5.09 and the pIC50 (second compound 10 µM) was 5.31. The viability, T/C [1] was 99.8%, the viability, T/C [2] was 95.3% and the viability, T/C [3] was 95%. The viability, T/C [4] was 105%, the viability, T/C [5] was 93.3% and the viability, T/C [6] was 53%. It also gave a viability, T/C [7] of 112%, a viability, T/C [8] of 95.4% and a viability, T/C [9] of 97.1%. It also gave a viability, T/C [10] of 99.7%, a viability, T/C [11] of 82.6% and a viability, T/C [12] of 62.9%. The viability, T/C [13] was 102%, the viability, T/C [14] was 100% and the viability, T/C [15] was 104%. For the same molecule, the viability, T/C [16] was 101%, the viability, T/C [17] was 77.5% and the viability, T/C [18] was 56.8%. The viability, T/C [19] was 96.5%, the viability, T/C [20] was 105% and the viability, T/C [21] was 99.3%. The viability, T/C [22] was 88.9%, the viability, T/C [23] was 86.9% and the viability, T/C [24] was 56%. It also gave a viability, T/C [25] of 101%, a viability, T/C [26] of 96.8% and a viability, T/C [27] of 103%. The viability, T/C [28] was 93.1%, the viability, T/C [29] was 85.7% and the viability, T/C [30] was 42.1%. It also gave a viability, T/C [31] of 98.5%, a viability, T/C [32] of 94% and a viability, T/C [33] of 96.8%. It also gave a viability, T/C [34] of 91.5%, a viability, T/C [35] of 71.4% and a viability, T/C [36] of 14.7%.
